The source of these data is patent publication US5852004A, “Drug and pharmaceutical composition for the treatment of lesions of the digestive tract” (Societe Valbiofrance, priority 1994, dated 1998).

One experiment concerns 125I-FGF1. Description: protection of 125I-FGF1 against proteolytic degradation by trypsin (gel, autoradiography). The class given is biochemical. The settings on record: FIG. 5A, 37° C. How it is done: Proteolytic digestion was carried out at 37° C. and the samples were separated by 18% polyacrylamide gel electrophoresis. The gels are dried and autoradiographed. The first track contains the 125I-FGF1 on its own.

The subject of experiment [1] is FGF. The settings on record: Tardieu et al. 1992; cited from earlier work.
For another experiment, the system named is FGF 2. Put plainly: potentialization of FGF2 biological activity, tritiated thymidine incorporation in CCL39 cells. The class given is cell-based. The source says: (§1) The cells used in this example are CCL39 cells from the American Tissue Culture Collection. The conditions concerning culture and the measurement test of FGF biological activity are the same as those described in the publication by Tardieu and coll. in the Journal of Cellular Physiology, 1992. The FGF growth factors used are the FGF 1 and FGF 2 recombinant forms.
(§2) In these experiments, the FGF 1 or 2 is used at a dose corresponding to the effective dose (indicated ED50) in order to induce a stimulation of the biological activity of 50% of the dose inducing the maximum stimulation. The biological activity is measured by the ability to induce an increase of the incorporation of tritiated thymidine in the cells according to protocols extensively described in numerous publications such as the previously mentioned publication by Tardieu et coll. and also in French Patent 2 644 066.
(§3) In addition to this ability to potentialize the biological activity of the FGFs, the HBGFPPs protect the FGFs against thermal degradations and the inactivation induced by the proteolytic action of trypsin (FIGS. 4 and 5). Similarly, these HBGFPPs protect FGF1 and 2 against an inactivation induced by the proteolytic activity of trypsin (FIGS. 5A and 5B).

The subject of another experiment is FGF 1. Put plainly: potentialization of FGF1 biological activity, tritiated thymidine incorporation in CCL39 cells. The class given is cell-based.
Text: as §1, §2, §3
For orientation: Dividing cells build labelled thymidine or BrdU into new DNA.

The subject of experiment [2] is FGF. Description: semi-quantitative evaluation of FGF protection against trypsin (densitometry of radio-labelled FGF). The class given is biochemical. The conditions noted are these: FGF + trypsin + polymer; radio-labelled FGF found vs quantity deposited. How it is done:
As described above, a constant quantity of radioactive FGF is incubated under various conditions. After autoradiography of the reaction products, the non degraded quantity of radioactive FGF is quantified by densitometry. The values correspond to the percentage of radio-labelled FGF found compared to the quantity deposited at the start of reaction (Table 5).

In the next experiment the test system is FGF2. Put plainly: protection of FGF2 against thermal degradation. The class given is cell-based. The conditions noted are these: FIG. 4; 20° C. and 37° C., 1, 7, 15, 30 days. As for the experimental part: (§4) (a) and 37° C. (b) for 1, 7, 15, 30 days. The measurement of the biological activity presented in abscissa corresponds to the stimulation unit values (ED50) of the incorporation of tritiated thymidine in CCL39 cells.

A further experiment has as its target T1, beta TGF (Homo sapiens, UniProt P01137).
T1 construct: from tissue; host or cells: human blood platelets
Put plainly: protection of beta TGF against trypsin, read by inhibition of tritiated thymidine incorporation in CCL64 cells. The class given is cell-based. The settings on record: 37° C. 10 min. How it is done: In order to measure the capacity of certain CMDBSs to interact with members of the beta TGF family and, by means of this interaction, to protect the beta TGFS, a grading test was devised.
The beta 1 TFG is prepared from human blood platelets according to a protocol described in numerous publications (for example Growth factors and their receptors, 1992, vol 1 pp 419-472, written by A. Roberts and M. Sporn, edited by A. Roberts and M. Sporn, and published by Springer Verlag Berlin) and is commonly used by persons of ordinary skill in the art. The beta TGF biological activity test used in this example is that of the inhibition of CCL64 cells (from the American Tissue Culture Collection). This inhibition is measured by the ability of the beta TGF to inhibit the incorporation of tritiated thymidine in a dose dependent manner in these CCL64 cells stimulated by the FGF or by fetal calf serum according to the protocol described by Van Zolen in Progress in Growth Factor Research, 1990, 2, pp 131 to 152. Two doses of beta TGF are used, one corresponding to the 50% inhibition capacity of the incorporation of tritiated thymidine (defined as the inhibiting activity unit) and the other corresponding to the 100% inhibition capacity.
The final volume of the incubated solution is adjusted to 1 ml and incubation is carried out at 37° C. for a varying length of time (10 minutes in the example described (Table 1)).
20 μl samples […] are taken from each of the incubation reactions and added to CCL64 cells cultivated in 24-well plates, each well containing one milliliter of culture medium according to the aforementioned protocol described by E. Zohlen. In these conditions, the final concentration of beta TGF per well is 1 ng/ml.
The incubation mixture contained 50 ng of beta TGF (in 0.1% bovine serum albumin) and trypsin (500 μg). Mesoglycan or sulodexide or dextran sulfate or dextran or sucrase are used at the dose of 5000 μg.
The beta TGF biological activity is measured as described above after a dilution of 50 times and by using CCL64 cells.

For a further experiment, the system named is FGF1. Put plainly: protection of FGF1 against thermal degradation. The class given is cell-based. The settings on record: FIG. 3; 20° C. and 37° C., 1, 7, 15, 30 days. As for the experimental part: as §4
In the next experiment the test system is 125I-FGF2. Description: protection of 125I-FGF2 against proteolytic degradation by trypsin (gel, autoradiography). The class given is biochemical. The conditions noted are these: FIG. 5B, 37° C. The source says: The arrangement of the tracks is identical to that presented for the ^125 I-FGF1 in FIG. 5A.
For experiment [3], the system named is anastomosis of the rectocolic junction. How it is done:
Male Wistar rats (Wi/Wi, Ico, Iffa Credo France), weighing 250 to 300 g are anesthetized with sodic pentobarbital. A subumbilical midline laparotomy is performed over 1.5 cm. The rectocolic junction is individualized and then sectioned with bistoury. […] The anastomosis is carried out according to a termino-terminal mode in a plane by five separate stitches of polyglactine 910 thread, diameter 6/0. The knots are made of 6 loops. Parietal closure is performed in two planes. The rats are divided into two groups of 7 rats. The experiments are conducted in double blind. Samples are taken on the 2nd, 4th and 7th days after the operation. The quality of the healing is studied by measuring the rupture pressure of the anastomosis, in millimeters of mercury. The colon is sectioned 2 cm on either side of the anastomosis, one end being connected to a self-pushing syringe which injects water at a low, constant rate, and the other end being linked to a manometer. Pressure is recorded continuously on a reel of paper. The rupture pressure is determined by analyzing the tracing.

A further experiment relates to complement system. The conditions noted are these: according to Mauzac et al.
Experiment [4] relates to colitis induced by acetic acid. Put plainly: colitis induced by acetic acid. The class given is in vivo, Sprague Dawley male rats. The settings on record: for Alteration score: per os twice a day for three days, score 72 hours after acetic acid, mean ± standard error. How it is done:
Groups of 6 Sprague Dawley male rats weighing approximately 200 g are placed in hydric fasting 24 hours before the test. On the day of the test, the animals are anesthetized with pentobarbital (30 mg/kg) by intraperitoneal route. After laparotomy, a colic instillation of 2 ml of 5% acetic acid is performed 2 cm from the caecum. The acetic acid is left in contact for 10 seconds and the colon is then rinsed by 3 ml of saline phosphate buffer (PBS) at pH 7. The wound is then closed. The animals are sacrificed 72 hours later by cervical elongation. The colic alterations are noted on the following scale:
2: superficial necrosis of the mucosa
4: major necrosis of the mucosa with edema
A third group receives sucralfate (marketed under the name of ULCAR Pharmaceutical Laboratories Fabre). The supplier's recommended dose is used (500 mg/kg, i.e. 100 mg per rat) administered orally twice a day for three days.
The mean and the standard error were calculated for each batch of animals. Statistical comparison is performed using White's non parametric test compared to the control.

The next experiment has as its system trypsin. Put plainly: enzymatic activity of trypsin on substrate S87.
Where [5] appears, read: 10 μg/ml of sulodexide or 20 μg/ml of heparin, CCL39 cells.
Setting [6] is: beta TGF 50 ng + polymer 5000 μg + trypsin 500 μg.
Where [7] appears, read: beta TGF 50 ng + polymer 5000 μg, no trypsin.

Like-named read-outs stand apart in the source and are kept apart here.

T1 sequence (P01137 279-390 limits assumed): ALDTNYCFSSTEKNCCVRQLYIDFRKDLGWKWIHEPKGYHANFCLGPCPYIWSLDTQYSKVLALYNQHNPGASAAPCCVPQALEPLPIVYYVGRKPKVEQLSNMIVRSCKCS

With heparin, in the experiment on 125I-FGF1, the “protective effect against proteolytic degradation of 125I-FGF1” value is recorded as “protective effect”. Further, the “protection of FGFs against proteolysis induced by trypsin” value in the experiment on FGF [1] is recorded as “provides protection against proteolysis induced by trypsin”. Besides, the “ED50 of FGF 2 in the presence of polymer” value with FGF 2 (setting [5]) worked out at 0.2 ng/mL. For the same molecule, the “potentialization of the biological activity of FGF2” value with FGF 2 (FIG. 2B, 20 μg heparin, 10 μg mesoglycan or 10 μg sulodexide) was “potentialization”. Besides, in the experiment on FGF 1 (setting [5]), the “ED50 of FGF 1 in the presence of polymer” value was found to be 0.4 ng/mL. In the experiment with FGF 1 (FIG. 2A, 20 μg heparin, 10 μg mesoglycan or 10 μg sulodexide), the “potentialization of the biological activity of FGF1” value is reported as “potentialization”. The “PROTECTION (in %) of the FGF” value in the experiment with FGF [2] was 100%. For the same molecule, the “protective effect against thermal degradation of FGF2” value in the experiment with FGF2 is “protective effect”. Moreover, the results for the “% inhibiting activity of the incorporation of tritiated thymidine in CCL64 cells” value at beta TGF (setting [6]) and on beta TGF (setting [7]) were 10% and 100%, respectively. In addition, the “protective effect against thermal degradation of FGF1” value in the experiment with FGF1 is listed as “protective effect”. Also, in the experiment on 125I-FGF2, the “protective effect against proteolytic degradation of 125I-FGF2” value is “protective effect”.
With “carboxymethyl dextran benzylamide sulfonate [CMDBS]”, the “Rupture pressure, mean” value in experiment [3] (DAY 2) is listed as 67.28 mm of Hg; in experiment [3] (DAY 4), 144.8 mm of Hg. Moreover, in experiment [3] (Day 4), the “increased resistance vs untreated” value is recorded as “about 10%”. In addition, the “difference between treated and untreated resistances” value in experiment [3] (Day 7) is “no longer any difference”. The “anticomplement activity, CH50” value with complement system stood at 1.1 µg. For the same molecule, the Alteration score in [4] was found to be 0.70 ± 0.37. Moreover, the “reduction of the seriousness of the colic lesions” value in experiment [4] (p≤0.05) is recorded as “about 75%”. The “inhibiting power on the activity of trypsin” value in the experiment with trypsin is “no inhibiting power”. Further, the “trypsin activity on S87” value in the experiment with trypsin (trypsin 10 ug/ml + S87 + 5 μg/ml CMDBS), with trypsin (trypsin + S87 + 50 μg/ml CMDBS) and in the experiment on trypsin (trypsin + S87 + 500 μg/ml CMDBS) was 100 throughout. The entries for the “% inhibiting activity of the incorporation of tritiated thymidine in CCL64 cells” value on beta TGF (setting [6]) and at beta TGF (setting [7]) were 75% and 100%, respectively.
On to sucralfate [reference compound], for which the Alteration score in [4] turned out to be 2.25 ± 0.48. Besides, the “effect on the healing of the ulcers” value in [4] (rat, in vivo) is reported as “no significant effect”.

B1: STBI: trypsin inhibitor originating from soya, from Sigma (protein, UniProt P01070 25-205, looked up)
Trypsin inhibitor A: DFVLDNEGNPLENGGTYYILSDITAFGGIRAAPTGNERCPLTVVQSRNELDKGIGTIISSPYRIRFIAEGHPLSLKFDSFAVIMLCVGIPTEWSVVEDLPEGPAVKIGENKDAMDGWFRLERVSDDEFNNYKLVFCPQQAEDDKCGDIGISIDHDDGTRRLVVSKNKPLVVQFQKLDKESL
On to B1, for which, in the experiment on trypsin (trypsin + S87 + trypsin inhibitor), the “trypsin activity on S87” value worked out at 0.
